# Measurements: PubChem BioAssay AID180 (DTP/NCI, 2004)
# Where “and” joins values, the source holds several entries; their conditions need not be identical. Identical values can stand only once.
# System: BDF1 mice, Adenocarcinoma 755 s.c., tumor weight T/C
# Test: NCI In Vivo Anticancer Drug Screen. Data for tumor model Adenocarcinoma 755 (subcutaneous) in B6D2F1 (BDF1) mice
# Details: endpoint: mean tumor weight, higher = larger tumour
# Method in brief: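 Readout: T/C, i.e. treated-group measurement over vehicle-control measurement. Endpoint is survival or tumor size in tumor-bearing mice given compound.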
# [1] = dose: 50.0 mg/kg/injection, schedule: Q01DX011 (sc), vehicle: steriod suspending solution
# [2] = dose: 100.0 mg/kg/injection, schedule: Q01DX011 (sc), vehicle: steriod suspending solution
# [3] = dose: 200.0 mg/kg/injection, schedule: Q01DX011 (sc), vehicle: steriod suspending solution
# [4] = dose: 400.0 mg/kg/injection, schedule: Q01DX011 (sc), vehicle: steriod suspending solution
# [5] = dose: 7.5 mg/kg/injection, schedule: Q01DX011 (ip), vehicle: carboxymethylcellulose (CMC)
# [6] = dose: 30.0 mg/kg/injection, schedule: Q01DX011 (ip), vehicle: carboxymethylcellulose (CMC)
# [7] = dose: 15.0 mg/kg/injection, schedule: Q01DX011 (ip), vehicle: methylcellulose (MC)
# [8] = dose: 31.0 mg/kg/injection, schedule: Q01DX011 (ip), vehicle: methylcellulose (MC)
smiles,measurement,setting,value
COc1cc2c(cc1I)-c1c(cc(OC)c(OC)c1OC)CC[C@@H]2NC(C)=O,T/C,"dose: 27.5 mg/kg/injection, schedule: Q01DX011 (ip), vehicle: carboxymethylcellulose (CMC)",98 % of control
same,T/C,"dose: 27.5 mg/kg/injection, schedule: Q01DX011 (ip), vehicle: saline",106 % of control
same,T/C,"dose: 55.0 mg/kg/injection, schedule: Q01DX011 (ip), vehicle: carboxymethylcellulose (CMC)",81 % of control
same,T/C,"dose: 55.0 mg/kg/injection, schedule: Q01DX011 (ip), vehicle: saline",86 % of control
same,T/C,"dose: 110.0 mg/kg/injection, schedule: Q01DX011 (ip), vehicle: carboxymethylcellulose (CMC)",40 % of control
same,T/C,"dose: 110.0 mg/kg/injection, schedule: Q01DX011 (ip), vehicle: saline",58 % of control
same,T/C,"dose: 220.0 mg/kg/injection, schedule: Q01DX011 (ip), vehicle: saline",16 % of control
CC(=O)[C@H]1CC[C@H]2[C@@H]3C[C@H](C)C4=CC(=O)CC[C@]4(C)[C@H]3[C@@H](O)C[C@]12C,T/C,[1],56 % of control and 63 % of control
same,T/C,[2],59 % of control and 60 % of control
same,T/C,[3],15 % of control and 34 % of control
CCCCn1cnc2c(SCc3ccccn3)nc(N)nc21,T/C,"dose: 3.6 mg/kg/injection, schedule: Q01DX011 (ip), vehicle: methylcellulose (MC)",6 % of control
same,T/C,"dose: 7.25 mg/kg/injection, schedule: Q01DX011 (ip), vehicle: methylcellulose (MC)",2 % of control
C[C@]12CCC(=O)C=C1CC[C@@H]1[C@@H]2[C@@H](O)C[C@@]2(C)[C@H]1CC[C@]2(O)C(=O)COC(=O)COCC(=O)O,T/C,"dose: 50.0 mg/kg/injection, schedule: Q01DX011 (ip), vehicle: steriod suspending solution",53 % of control
same,T/C,[1],54 % of control
same,T/C,"dose: 100.0 mg/kg/injection, schedule: Q01DX011 (ip), vehicle: steriod suspending solution",22 % of control
same,T/C,[2],62 % of control
same,T/C,"dose: 200.0 mg/kg/injection, schedule: Q01DX011 (ip), vehicle: steriod suspending solution",12 % of control
same,T/C,[3],56 % of control
same,T/C,[4],31 % of control
CS(=O)(=O)c1nc(N)nc2nc[nH]c12,T/C,"dose: 3.75 mg/kg/injection, schedule: Q01DX011 (ip), vehicle: carboxymethylcellulose (CMC)",81 % of control
same,T/C,[5],93 % of control and 81 % of control
same,T/C,[6],5 % of control and 12 % of control
C[C@]1(O)CC[C@H]2[C@@H]3CC[C@@H]4CC(=O)CC[C@]4(C)[C@@]3(F)C(=O)C[C@@]21C,T/C,[3],72 % of control
same,T/C,[4],117 % of control
COc1cc(-c2ccc(Nc3ccccc3C(=O)O)c(OC)c2)ccc1Nc1ccccc1C(=O)O,T/C,"dose: 25.0 mg/kg/injection, schedule: Q01DX011 (ip), vehicle: saline",75 % of control
same,T/C,"dose: 50.0 mg/kg/injection, schedule: Q01DX011 (ip), vehicle: saline",28 % of control
same,T/C,"dose: 100.0 mg/kg/injection, schedule: Q01DX011 (ip), vehicle: saline",5 % of control
COc1cc(N=Nc2cccc(S(=O)(=O)O)c2)ccc1NC(=O)c1ccc(C(=O)Nc2ccc(N=Nc3cccc(S(=O)(=O)O)c3)cc2OC)cc1,T/C,[6],102 % of control
same,T/C,"dose: 60.0 mg/kg/injection, schedule: Q01DX011 (ip), vehicle: carboxymethylcellulose (CMC)",105 % of control
same,T/C,"dose: 120.0 mg/kg/injection, schedule: Q01DX011 (ip), vehicle: carboxymethylcellulose (CMC)",82 % of control
same,T/C,"dose: 240.0 mg/kg/injection, schedule: Q01DX011 (ip), vehicle: carboxymethylcellulose (CMC)",57 % of control
Cc1ccc(C)c(N=Nc2c(S(=O)(=O)O)cc3cc(NC(=O)Nc4ccc5c(O)c(N=Nc6ccc7cc(S(=O)(=O)O)ccc7c6)c(S(=O)(=O)O)cc5c4)ccc3c2O)c1,T/C,"dose: 45.0 mg/kg/injection, schedule: Q01DX011 (ip), vehicle: carboxymethylcellulose (CMC)",59 % of control
CN(C)C1C(=O)C(C(N)=O)=C(O)C2(O)C(=O)C3=C(O)c4c(O)cccc4C(C)(O)C3C(O)C12 (stereo not drawn),T/C,"dose: 19.5 mg/kg/injection, schedule: Q01DX011 (ip), vehicle: carboxymethylcellulose (CMC)",78 % of control
same,T/C,"dose: 19.86 mg/kg/injection, schedule: Q01DX011 (ip), vehicle: carboxymethylcellulose (CMC)",106 % of control
same,T/C,"dose: 31.25 mg/kg/injection, schedule: Q01DX011 (ip), vehicle: methylcellulose (MC)",117 % of control
same,T/C,"dose: 39.0 mg/kg/injection, schedule: Q01DX011 (ip), vehicle: carboxymethylcellulose (CMC)",91 % of control
same,T/C,"dose: 50.0 mg/kg/injection, schedule: Q01DX011 (ip), vehicle: water",81 % of control
same,T/C,"dose: 62.4 mg/kg/injection, schedule: Q01DX011 (ip), vehicle: carboxymethylcellulose (CMC)",46 % of control
same,T/C,"dose: 62.5 mg/kg/injection, schedule: Q01DX011 (ip), vehicle: methylcellulose (MC)",69 % of control
same,T/C,"dose: 63.56 mg/kg/injection, schedule: Q01DX011 (ip), vehicle: carboxymethylcellulose (CMC)",119 % of control
same,T/C,"dose: 78.0 mg/kg/injection, schedule: Q01DX011 (ip), vehicle: carboxymethylcellulose (CMC)",95 % of control and 110 % of control
same,T/C,"dose: 79.45 mg/kg/injection, schedule: Q01DX011 (ip), vehicle: carboxymethylcellulose (CMC)",92 % of control and 75 % of control and 87 % of control
same,T/C,"dose: 100.0 mg/kg/injection, schedule: Q01DX011 (ip), vehicle: water",45 % of control
same,T/C,"dose: 104.0 mg/kg/injection, schedule: Q01DX011 (ip), vehicle: carboxymethylcellulose (CMC)",65 % of control
same,T/C,"dose: 105.93 mg/kg/injection, schedule: Q01DX011 (ip), vehicle: carboxymethylcellulose (CMC)",96 % of control and 87 % of control
same,T/C,"dose: 125.0 mg/kg/injection, schedule: Q01DX011 (ip), vehicle: methylcellulose (MC)",73 % of control
same,T/C,"dose: 150.0 mg/kg/injection, schedule: Q01DX011 (ip), vehicle: water",14 % of control
CCOC(=O)c1c(C#N)c(Cl)nc(C)c1[N+](=O)[O-],T/C,"dose: 1.5 mg/kg/injection, schedule: Q01DX011 (ip), vehicle: carboxymethylcellulose (CMC)",60 % of control
same,T/C,"dose: 3.0 mg/kg/injection, schedule: Q01DX011 (ip), vehicle: carboxymethylcellulose (CMC)",70 % of control
COc1cccc2c1cc([N+](=O)[O-])c1c(C(=O)O)cc3c(c12)OCO3,T/C,"dose: 50.0 mg/kg/injection, schedule: Q01DX011 (ip), vehicle: other",59 % of control
same,T/C,"dose: 100.0 mg/kg/injection, schedule: Q01DX011 (ip), vehicle: other",43 % of control
COC1C(OC(=O)/C=C/C=C/C=C/C=C\C(=O)O)CCC2(CO2)C1C1(C)OC1CC=C(C)C (stereo not drawn),T/C,"dose: 10.0 mg/kg/injection, schedule: Q01DX011 (ip), vehicle: other",90 % of control
same,T/C,"dose: 20.0 mg/kg/injection, schedule: Q01DX011 (ip), vehicle: other",98 % of control
same,T/C,"dose: 40.0 mg/kg/injection, schedule: Q01DX011 (ip), vehicle: other",64 % of control
same,T/C,"dose: 80.0 mg/kg/injection, schedule: Q01DX011 (ip), vehicle: other",82 % of control
same,T/C,"dose: 160.0 mg/kg/injection, schedule: Q01DX011 (ip), vehicle: other",74 % of control
Nc1nc(O)c(Br)c(=O)[nH]1,T/C,[7],86 % of control
same,T/C,[8],69 % of control
same,T/C,"dose: 62.0 mg/kg/injection, schedule: Q01DX011 (ip), vehicle: methylcellulose (MC)",68 % of control
CCCN(C)/N=N/c1nc[nH]c1C(N)=O,T/C,"dose: 5.0 mg/kg/injection, schedule: Q01DX011 (ip), vehicle: carboxymethylcellulose (CMC)",91 % of control
same,T/C,[5],87 % of control
same,T/C,"dose: 10.0 mg/kg/injection, schedule: Q01DX011 (ip), vehicle: carboxymethylcellulose (CMC)",51 % of control
same,T/C,"dose: 15.0 mg/kg/injection, schedule: Q01DX011 (ip), vehicle: carboxymethylcellulose (CMC)",47 % of control
same,T/C,"dose: 20.0 mg/kg/injection, schedule: Q01DX011 (ip), vehicle: carboxymethylcellulose (CMC)",39 % of control
same,T/C,[6],30 % of control
same,T/C,"dose: 40.0 mg/kg/injection, schedule: Q01DX011 (ip), vehicle: carboxymethylcellulose (CMC)",37 % of control
CSc1ncc(Br)c(=O)[nH]1,T/C,[7],81 % of control
same,T/C,[8],72 % of control
same,T/C,"dose: 250.0 mg/kg/injection, schedule: Q01DX011 (ip), vehicle: methylcellulose (MC)",56 % of control
CC(=O)c1cc(C)[nH]c1C,T/C,"dose: 29.0 mg/kg/injection, schedule: Q01DX011 (ip), vehicle: carboxymethylcellulose (CMC)",58 % of control
same,T/C,"dose: 57.5 mg/kg/injection, schedule: Q01DX011 (ip), vehicle: carboxymethylcellulose (CMC)",99 % of control
same,T/C,"dose: 115.0 mg/kg/injection, schedule: Q01DX011 (ip), vehicle: carboxymethylcellulose (CMC)",29 % of control
same,T/C,"dose: 115.0 mg/kg/injection, schedule: Q01DX011 (ip), vehicle: methylcellulose (MC)",96 % of control and 77 % of control
CC(=O)[C@H]1CC[C@H]2[C@@H]3C[C@H](C)C4=CC(=O)CC[C@]4(C)[C@H]3C(=O)C[C@]12C,T/C,"dose: 25.0 mg/kg/injection, schedule: Q01DX011 (sc), vehicle: steriod suspending solution",65 % of control
same,T/C,[1],78 % of control
same,T/C,[3],35 % of control and 43 % of control
same,T/C,[4],21 % of control
same,T/C,"dose: 800.0 mg/kg/injection, schedule: Q01DX011 (sc), vehicle: steriod suspending solution",30 % of control
